Data reported in patent US20130281448A1, “SMALL MOLECULE COMPOUNDS FOR TARGETING INFLAMMATORY CONDITIONS” (priority 2012, published 2013).

How the values were obtained:
mild plaque psoriasis = assay: Case report Example 1: psoriasis under erlotinib; assay type: in vivo, human; conditions: person, 150 mg daily oral
Description: (§1) A person, whose child has a history of recurrent-remitting MS, developed severe back pain. […] After one year, their serum level of antithyroid peroxidase was reduced from 1719 to 366.

[1] = on the face, scalp, neck, and back; cited from earlier work
rheumatoid arthritis = assay: Example 3: patient with rheumatoid arthritis; assay type: in vivo, human; conditions: 150 mg daily for several weeks
Experimental: A patient is diagnosed with rheumatoid arthritis. Erlotinib is administered in a dose of 150 mg daily for several weeks.

[2] = test system: type 2 insulin requiring diabetes mellitus; assay: Case report Example 1: diabetes / insulin requirement under erlotinib; assay type: in vivo, human; conditions: person, 150 mg daily oral
Description: as §1

insulin resistance = assay: Example 6: group of patients with insulin resistance, placebo controlled; assay type: in vivo, human; conditions: erlotinib 150, gefitinib 250, icotinib 300 mg daily for several weeks, versus placebo
Experimental: (§2) A group of patients with insulin resistance is identified. The patients are administered erlotinib (150 mg daily), gefitinib (250 mg daily), icotinib (300 mg daily), or placebo in for several weeks. […] Following clinical improvement, the dose of erlotinib, gefitinb, or icotinib is reduced to a maintenance dose as low as 25 mg, 50 mg, or 75 mg daily, respectively.

Crohn's disease = assay: Example 4: patient with Crohn's disease; assay type: in vivo, human; conditions: 150 mg daily for several weeks
Experimental: A patient is diagnosed with Crohn's disease. Erlotinib is administered in a dose of 150 mg daily for several weeks.

Hashimoto's thyroiditis = assay: Case report Example 1: Hashimoto's thyroiditis, serum antithyroid peroxidase under erlotinib; assay type: in vivo, human; conditions: person; 150 mg daily oral; after one year; reduced from 1719 before treatment
Description: as §1

MS = assay: Case report Example 2: course of MS (symptoms, brain MRI); assay type: in vivo, human
Description: A person was well, when they developed numbness and tingling in their lower extremities. A magnetic resonance imaging (MRI) of the brain, along with spinal fluid findings, were consistent with MS. […] From then, they were asymptomatic except for three exacerbations which also responded to intravenous methyl prednisone. They took no other medications for MS.
(§3) They were placed on interferon β-1a. […], they developed weakness in their lower extremities and was switched to natalizumab. […] […], independent of their MS, they developed NSCLC with a genetic mutation. Natalizumab was discontinued and erlotinib was initiated at an oral dose of 150 mg daily. […] Brain MRIs with contrast two months prior to starting erlotinib, immediately prior to starting erlotinib, and after three and six months on erlotinib are unchanged.

[3] = test system: metastatic NSCLC with a genetic mutation; assay: Case report Example 1: metastatic NSCLC patient on daily oral erlotinib; assay type: in vivo, human; conditions: person, 150 mg daily oral
Description: as §1

psoriasis = assay: Example 7: group of patients with psoriasis, placebo controlled; assay type: in vivo, human; conditions: erlotinib 150, gefitinib 250, icotinib 300 mg daily for several weeks, versus placebo
Experimental: as §2, with “psoriasis” for “insulin resistance”

[4] = test system: NSCLC with a genetic mutation; assay: Case report Example 2: NSCLC in MS patient on erlotinib; assay type: in vivo, human; conditions: person; oral 150 mg daily; after six months
Experimental: as §3

multiple sclerosis = assay: Example 5: group of patients with multiple sclerosis, placebo controlled; assay type: in vivo, human; conditions: erlotinib 150, gefitinib 250, icotinib 300 mg daily for several weeks, versus placebo
Experimental: as §2, with “multiple sclerosis” for “insulin resistance”

For `C#Cc1cccc(Nc2ncnc3cc(OCCOC)c(OCCOC)cc23)c1` [erlotinib], the evidence of psoriasis (mild plaque psoriasis; after seven months) is listed as “no evidence of NSCLC or psoriasis”, the psoriasis (mild plaque psoriasis; three weeks after starting) is listed as “their psoriasis cleared” and the “most common adverse effect” value [1] is listed as “mild to moderate reversible papulopustular skin eruption”. For the same compound, the clinical outcome (rheumatoid arthritis) was “Clinical improvement is seen”, the “insulin requirement / new medication to control diabetes” value ([2]; after seven months) was “remains off of insulin and has not required any new medication to control their diabetes” and the insulin requirement ([2]; after ten weeks) was “no longer required insulin”. For the same compound, the clinical outcome (insulin resistance) was “Clinical improvement is seen”, the clinical outcome (Crohn's disease) was “Clinical improvement is seen” and the “serum level of antithyroid peroxidase” value (Hashimoto's thyroiditis) was 366. The “enhancing lesions on brain MRI” value (MS; person with MS, oral 150 mg daily, after three and six months) was “no enhancing lesions”, the “brain MRIs with contrast” value (MS; person with MS, oral 150 mg daily, after three and six months versus before starting) was “unchanged” and the “evidence of NSCLC” value ([3]; after seven months) was “no evidence of NSCLC or psoriasis”. The severe back pain ([3]; three weeks after starting) was “their pain abated”, the clinical outcome (psoriasis) was “Clinical improvement is seen” and the cancer status [4] was “total remission”. For the same compound, the clinical outcome (multiple sclerosis) was “Clinical improvement is seen”.
With `COc1cc2ncnc(Nc3ccc(F)c(Cl)c3)c2cc1OCCCN1CCOCC1` [gefitinib] the clinical outcome (insulin resistance) was “Clinical improvement is seen”, the clinical outcome (psoriasis) was “Clinical improvement is seen” and the clinical outcome (multiple sclerosis) was “Clinical improvement is seen”.
With `C#Cc1cccc(Nc2ncnc3cc4c(cc23)OCCOCCOCCO4)c1` [icotinib] the clinical outcome (insulin resistance) was “Clinical improvement is seen”, the clinical outcome (psoriasis) was “Clinical improvement is seen” and the clinical outcome (multiple sclerosis) was “Clinical improvement is seen”.
For methyl prednisone, the “response of MS at first presentation” value (MS; patient one, intravenous) was “achieved total remission” and the “response of three MS exacerbations” value (MS; patient, intravenous) was “responded”.
For natalizumab, the MS symptoms (MS; patient, since the switch) was “asymptomatic since that time”.
